From PMC7619385 (ACS infectious diseases, 2025)
Read-outs that look alike come from different tables or passages of the source.

Target: T1, LmxCLK1 (Leishmania mexicana, UniProt E9AMP2)
T1 sequence (E9AMP2 1-422): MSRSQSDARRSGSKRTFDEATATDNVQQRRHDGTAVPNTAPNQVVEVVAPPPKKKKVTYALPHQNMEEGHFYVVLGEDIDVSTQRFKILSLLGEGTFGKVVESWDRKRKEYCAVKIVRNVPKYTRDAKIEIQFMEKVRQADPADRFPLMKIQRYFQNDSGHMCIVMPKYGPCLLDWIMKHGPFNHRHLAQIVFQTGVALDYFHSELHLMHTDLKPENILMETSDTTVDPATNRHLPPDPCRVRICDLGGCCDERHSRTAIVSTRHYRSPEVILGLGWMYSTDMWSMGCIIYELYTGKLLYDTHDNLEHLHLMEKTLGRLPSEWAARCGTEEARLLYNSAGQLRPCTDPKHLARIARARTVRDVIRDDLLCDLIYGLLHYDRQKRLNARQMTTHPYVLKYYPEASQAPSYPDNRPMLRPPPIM
Experiment: biochemical
Assay type: binding
Conditions: DSF, 10 µM compound

[1] = 2 µM LmxCLK1, Run 1, read-out: ΔTm Run 1
[2] = 2 µM LmxCLK1, Run 2, read-out: ΔTm Run 2
[3] = 2 µM LmxCLK1, mean of two runs, read-out: ΔTm Average

Compound | ΔTm Run 1 (2 µM LmxCLK1, Run 1) [°C] | ΔTm Run 2 (2 µM LmxCLK1, Run 2) [°C] | ΔTm Average (2 µM LmxCLK1, mean of two runs) [°C] | ΔTm at 10 µM [1] [°C] | ΔTm at 10 µM [2] [°C] | ΔTm at 10 µM [3] [°C]
CN(C)c1ccc(-c2nc3ncc(Cl)c(N4CCN(CC(=O)Nc5nccs5)CC4)c3[nH]2)cc1 [CCT129202] | -0.1 | 0.0 | 0.0 |  |  | 
Cc1cc(CN2CCN(c3c(Br)cnc4nc(-c5ccc(N6CCN(C)CC6)cc5)[nH]c34)CC2)no1 [CCT137690] | 0.3 | 0.4 | 0.3 |  |  | 
CN1CCN(c2cccc(Nc3nc4c(-c5ccc(S(C)(=O)=O)cc5)cccn4n3)c2)CC1 [CEP-33779] | 0.5 | 0.5 | 0.5 |  |  | 
Cc1c(NC(=O)c2ccc(C(C)(C)C)cc2)cccc1-c1cn(C)c(=O)c(Nc2ccc(C(=O)N3CCOCC3)cc2)n1 [CGI1746] |  |  |  | 0 | -0.4 | -0.2
O=C(NC(NC(=S)Nc1ccc(F)c([N+](=O)[O-])c1)C(Cl)(Cl)Cl)C(c1ccccc1)c1ccccc1 (stereo not drawn) [CGK 733] | -0.6 | 0.0 | -0.3 |  |  | 
CS(=O)(=O)N1CCc2c(-c3cnc(N)nc3)nc(N3CCOCC3)nc21 [CH5132799] |  |  |  | 0.4 | 0.1 | 0.2
O=c1[nH]c2ccc(Cl)cc2c(N[C@@H]2CN3CCC2CC3)c1-c1nc2ccccc2[nH]1 [CHIR-124] | 0.3 | 0.0 | 0.2 |  |  | 
Cc1cnc(-c2cnc(NCCNc3ccc(C#N)cn3)nc2-c2ccc(Cl)cc2Cl)[nH]1.Cl [CHIR-99021 (CT99021) HCl] | 0.0 | 0.0 | 0.0 |  |  | 
C=CC(=O)Nc1cccc(Nc2nc(Nc3ccc(N4CCN(C(C)=O)CC4)cc3OC)ncc2C(F)(F)F)c1 [CO-1686 (AVL-301)] | 0.0 | -0.3 | -0.1 |  |  | 
COCCOc1ccc2c(c1)ncn2-c1ccc2cccc(N3CCC(N)CC3)c2n1 [CP-673451] |  |  |  | 0.1 | 0 | 0
COCC(=O)NC/C=C/c1ccc2ncnc(Nc3ccc(Oc4ccc(C)nc4)c(C)c3)c2c1 [CP-724714] |  |  |  | 0.6 | 0.2 | 0.4
C#Cc1cccc(Nc2ncnc3cc(OC)c(OCCCCCCC(=O)NO)cc23)c1 [CUDC-101] |  |  |  | 0.4 | 0.2 | 0.3
COc1ccc(-c2nc(N3CCOCC3)c3sc(CN(C)c4ncc(C(=O)NO)cn4)cc3n2)cn1 [CUDC-907] |  |  |  | 0.3 | -0.2 | 0
Cc1nc(N)sc1-c1ccnc(Nc2ccc(N3CCOCC3)cc2)n1 [CYC116] |  |  |  | 0.4 | -0.1 | 0.1
N#CCNC(=O)c1ccc(-c2ccnc(Nc3ccc(N4CCOCC4)cc3)n2)cc1 [CYT387] |  |  |  | 0 | -0.1 | 0
CC(C)(C)NS(=O)(=O)c1cncc(-c2cc(F)c3nc(N)nn3c2)c1 [CZC24832] |  |  |  | 0 | -0.2 | -0.1
COc1cc2nccc(Oc3ccc(NC(=O)C4(C(=O)Nc5ccc(F)cc5)CC4)cc3)c2cc1OC [Cabozantinib (XL184)] | 0.3 | -0.2 | 0.0 |  |  | 
COc1cc2nccc(Oc3ccc(NC(=O)C4(C(=O)Nc5ccc(F)cc5)CC4)cc3)c2cc1OC.O=C(O)C[C@H](O)C(=O)O [Cabozantinib malate (XL184)] | 0.1 | -0.3 | -0.1 |  |  | 

Compound | ΔTm Run 1 (2 µM LmxCLK1, Run 1) [°C] | ΔTm Run 2 (2 µM LmxCLK1, Run 2) [°C] | ΔTm Average (2 µM LmxCLK1, mean of two runs) [°C] | ΔTm at 10 µM [1] [°C] | ΔTm at 10 µM [2] [°C] | ΔTm at 10 µM [3] [°C]
COc1cc2c(Oc3ccc4[nH]c(C)cc4c3F)ncnc2cc1OCCCN1CCCC1 [Cediranib (AZD2171)] | 0.5 | 0.1 | 0.3 |  |  | 
Cc1cc(O)c2c(c1)C(=O)c1cccc(O)c1C2=O [Chrysophanic Acid] |  |  |  | 0 | -0.2 | -0.1
CC1(COc2ccc3c(c2)ncn3-c2ccc3cccc(N4CCC(N)CC4)c3n2)COC1 [Crenolanib (CP-868596)] | 0.5 | -0.1 | 0.2 |  |  | 
C[C@@H](Oc1cc(-c2cnn(C3CCNCC3)c2)cnc1N)c1c(Cl)ccc(F)c1Cl [Crizotinib (PF-02341066)] | 1.4 | 1.4 | 1.4 |  |  | 
CNC(=O)c1cc(Oc2ccc(NC(=O)Nc3cc(C(C)(C)C)nn3-c3ccc4ncccc4c3)c(F)c2)ccn1 [DCC-2036 (Rebastinib)] | -0.2 | -0.4 | -0.3 |  |  | 
CO[C@@H](C(=O)N1Cc2n[nH]c(NC(=O)c3ccc(N4CCN(C)CC4)cc3)c2C1)c1ccccc1 [Danusertib (PHA-739358)] |  |  |  | 0.3 | 0.1 | 0.2
CCC[C@H](NC(=O)/C(C#N)=C/c1cccc(Br)n1)c1ccccc1 [Degrasyn (WP1130)] | 0.4 | 0.2 | 0.3 |  |  | 
CC(O)C(=O)O.CC(O)C(=O)O.CN1CCN(c2ccc3nc(-c4c(N)c5c(F)cccc5[nH]c4=O)[nH]c3c2)CC1 [Dovitinib (TKI-258) Dilactic Acid] | -0.5 | -0.4 | -0.4 |  |  | 
CN1CCN(c2ccc3nc(-c4c(N)c5c(F)cccc5[nH]c4=O)[nH]c3c2)CC1 [Dovitinib (TKI-258)] | 0.5 | 0.2 | 0.3 |  |  | 
O=c1cc(CN2CCOCC2)occ1OCCCCCSc1ccnc2cc(C(F)(F)F)ccc12 [EHT 1864] | 0.1 | -0.3 | -0.1 |  |  | 
CCn1c2ccccc2c2cc(Nc3ccnc(NCCCN4CCOCC4)n3)ccc21 [EHop-016] | -0.1 | 0.0 | 0.0 |  |  | 
Cc1cc(Nc2cc(N3CCN(C)CC3)nc(/C=C/c3ccccc3)n2)n[nH]1 [ENMD-2076] |  |  |  | 0.3 | 0.1 | 0.2
CC(C)(C#N)c1ccc(N2C(=O)OCc3cnc4ccc(-c5cnc6ccccc6c5)cc4c32)cc1 [ETP-46464] | 0.3 | -0.4 | -0.1 |  |  | 
CO[C@H]1C[C@@H]2CC[C@@H](C)[C@@](O)(O2)C(=O)C(=O)N2CCCC[C@H]2C(=O)O[C@H]([C@H](C)C[C@@H]2CC[C@@H](OCCO)[C@H](OC)C2)CC(=O)[C@H](C)/C=C(\C)[C@@H](O)[C@@H](OC)C(=O)[C@H](C)C[C@H](C)/C=C/C=C/C=C/1C [Everolimus (RAD001)] | 0.2 | -0.2 | 0.0 |  |  | 
CCCCCCCCc1ccc(CCC(N)(CO)CO)cc1.Cl [Fingolimod (FTY720) HCl] | 0.2 | -0.1 | 0.1 |  |  | 
COc1cc2c(Oc3ccc(NC(=O)C4(C(=O)Nc5ccc(F)cc5)CC4)cc3F)ccnc2cc1OCCCN1CCOCC1 [Foretinib (GSK1363089)] | 0.4 | -0.4 | 0.0 |  |  | 
CCNC(=O)Nc1ccc(-c2nc3c(c(N4CCOC[C@@H]4C)n2)CCN(C2COC2)C3)cc1 [GDC-0349] |  |  |  | -0.1 | -0.1 | -0.1
